Source: PMC8069289 (Molecules, 2021)
pIC50: −log10 of the molar value. Marks after values point to notes of the source that are not given here.

What was measured:
HL-60 cells = test: Cytotoxicity assay, Trypan blue exclusion test; type: cell-based, human; conditions: Homo sapiens; HL-60, 72 h; mean ± SD in Figure 3; read-out: IC50 (inhibitory concentration 50)
Protocol: Promyelocytic human leukaemia (HL-60) immortal cells originated from a person suffering myeloid leukaemia were grown as suspension cultures in RPMI-1640 medium ([…], Sigma-Aldrich, St. Louis, MO, USA) supplemented with 10% heat-inactivated foetal bovine serum (S01805, Linus, Madrid, Spain), L-glutamine 2 mM (G7513, Sigma-Aldrich, St. Louis, MO, USA) and 1× antibiotic-antimycotic solution from a 100× stock solution containing 10,000 units of penicillin, 10 mg of streptomycin and 25 μg of amphotericin B per mL ([…], Sigma-Aldrich, St. Louis, MO, USA). Cells were incubated at 37 °C in a 80% humidified atmosphere 5% CO2. Cultures were plated at 2.5 × 10^4 cells/mL density in 10 mL culture bottles and passed every 2 days. Trypan blue exclusion test was used to determine the cell viability exerted by the assayed compounds, according to our standard procedures. […] After culture, cells were stained with a 1:1 volume ratio of Trypan blue dye (T8154, Sigma-Aldrich, St. Louis, MO, USA) and counted in a Neubauer chamber at 100× magnification. The survival percentage of each treatment compared with the control was recorded in three independent replicates. Data are expressed as mean ± standard deviation of the mean (SEM).

Drosophila melanogaster [1] = test: Antigenotoxicity, wing spot test, combined treatment with hydrogen peroxide; type: in vivo; parameters: key to Total Spots, statistical diagnosis (Kastenbaum-Bowman test): * (positive); Δ (negative); β (inconclusive) vs. respective positive control
Protocol: All inconclusive and positive results (p > 0.05) were analysed with the nonparametric U-test of Mann, Whitney and Wilcoxon (α = β = 0.05). Anter et al. described the antigenotoxicity method conducted in D. melanogaster. […] Single and twin spots per wing were also recorded and compared with the concurrent negative control as described before. Finally, the inhibition percentages (IP) for the combined treatments were calculated as described by Abraham: IP = [(genotoxin alone-combined treatment)/genotoxin alone] × 100.

[2] = test system: LINE-1 repetitive sequences of HL-60 cells; test: Methylation status by qMSP, LINE-1; type: cell-based, human; conditions: HL-60, 5 h
Protocol: (§1) Then, DNA was extracted similarly to previously described DNA fragmentation assay. After that, the DNA was converted with bisulphite (EZ DNA Methylation-Gold™ Kit, Zymo Research, Irvine, CA, USA). Bisulphite-modified DNA was used for fluorescence-based real-time quantitative Methylation-Specific PCR (qMSP) using 5 µM of each forward and reverse primer (Isogen Life Science BV, Utrecht, The Netherlands), 2 µL of iTaq™ Universal SYBR® Green Supermix (Bio-Rad Laboratories, Inc., Hercules, CA, USA); it contains antibody-mediated hot-start iTaq DNA polymerase, dNTPs, MgCl2, SYBR® Green I dye, enhancers, stabilizers and a blend of passive reference dyes including ROX and fluorescein) and 25 ng of bisulphite converted genomic DNA.
(§2) PCR conditions included initial denaturalisation at 95 °C for 3 min and amplification which consisted of 45 cycles at 95 °C for 10 s, 60 °C for 15 s and 72 °C for 15 s, taking picture at the end of each elongation cycle. After that, melting curve was determined increasing 0.5 °C each 0.05 s from 60 °C to 95 °C and taking pictures.
QMSP was carried out in 48 well plates in MiniOpticon Real-Time PCR System (MJ Mini Personal Thermal Cycler, Bio-Rad) and were analysed by Bio-Rad CFX Manager 3.1 Software. The housekeeping Alu-C4 was used as a reference to correct for total DNA input. Alu-C4 and the target repetitive elements Alu-M1, LINE-1 and Sat-α were obtained from Isogen Life Science (Utrecht, The Netherlands) and their sequences are shown in Table 4. Each sample was analysed in triplicate.
The results of each CT were obtained from each qMSP. Data were normalised with the housekeeping Alu C4 using the Nikolaidis et al. and Liloglou et al. comparative CT method (ΔΔCT). One-way ANOVA and post-hoc Tukey’s test are used to evaluate the differences between the tested compounds, repetitive elements and concentrations.

[3] = test system: Sat-α repetitive sequences of HL-60 cells; test: Methylation status by qMSP, Sat-α; type: cell-based, human; conditions: HL-60, 5 h, 350 mM GLU
Protocol: as §1, §2
QMSP was carried out in 48 well plates in MiniOpticon Real-Time PCR System (MJ Mini Personal Thermal Cycler, Bio-Rad) and were analysed by Bio-Rad CFX Manager 3.1 Software. The housekeeping Alu-C4 was used as a reference to correct for total DNA input. […] Each sample was analysed in triplicate. […]

Drosophila melanogaster [4] = test: Chronic treatments: lifespan and healthspan assays; type: in vivo; conditions: for Healthspan (80th Percentile) / Mean Lifespan: chronic, mean ±SE
Protocol: Flies used in the lifespan assays show the same genetic background those used in the genotoxicity assays in order to compare both result. The treated adults consisted of the F1 progeny from mwh and flr^3 parental strains produced by a 24 h eggs-lying in yeast medium. The same compounds and concentrations as in the toxicity/genotoxicity experiments were assayed. Lifespan assays were carried out at 25 °C according to the procedure described by Fernandez-Bedmar et al.. Briefly, synchronized 72 ± 12-h-old trans-heterozygous larvae were washed in distilled water, collected and transferred in groups of 100 individuals into test vials containing 0.85 g Drosophila Instant Medium and 4 mL of the different concentrations of the compounds to be assayed. Emerged adults from pupae were collected under CO2 anaesthesia and placed in groups of 25 individuals of the same sex into sterile vials containing 0.21 g Drosophila Instant Medium and 1 mL of different concentrations of the compounds to be tested. Flies were chronically treated during all their life. The number of survivors was determined twice a week in three different replicates.

Drosophila melanogaster [5] = test: Antitoxicity assay, combined treatment with 0.15 M H2O2
Protocol: Toxicity was assayed according to our standard protocols. CRB and SFRB were tested at five concentrations: 1, 4, 8.12, 32.5 and 130 mg/mL and 0.16, 0.625, 1.25, 5 and 20 mg/mL, respectively. […] Tested groups consisted of larvae fed with Drosophila Instant Medium (Formula 4–24, Carolina Biological Supply, Burlington, NC, USA) supplemented with the assessed compounds concentrations. Emerging adults of all groups were counted and toxicity was determined as the percentage of hatched individuals in each treatment compared with the negative control.

[6] = GLU 11 mM + 0.15 M H2O2, No. of spots in parentheses
[7] = GLU 350 mM + 0.15 M H2O2, No. of spots in parentheses
[8] = GLU 2.7 mM vs concurrent water control
[9] = GLU 11 mM vs concurrent water control
[10] = GLU 21.86 mM vs concurrent water control
[11] = GLU 87.5 mM vs concurrent water control
[12] = GLU 350 mM vs concurrent water control

Structure (SMILES): OC[C@H]1OC(O)[C@H](O)[C@@H](O)[C@@H]1O (stereo partly shown) [GLU, Glucose]
- pIC50 (HL-60 cells): 1.37
- IP (%) inhibition percentage (Drosophila melanogaster [1]; GLU 11 mM + 0.15 M H2O2): 76.5%
- Twin Spots m = 5 (Drosophila melanogaster [1]; GLU 11 mM + 0.15 M H2O2): 0 clones per wing
- Large Simple Spots (>2 Cells) m = 5 (Drosophila melanogaster [1]; [6]): 0.025 (1) clones per wing
- Small Single Spots (1–2 Cells) m = 2 (Drosophila melanogaster [1]; [6]): 0.075 (3) clones per wing
- Total Spots m = 2 (Drosophila melanogaster [1]; [6]): 0.1 (4) clones per wing
- Total Spots, statistical diagnosis (Kastenbaum-Bowman test) (Drosophila melanogaster [1]; GLU 11 mM + 0.15 M H2O2 vs positive control): *
- IP (%) inhibition percentage (Drosophila melanogaster [1]; GLU 350 mM + 0.15 M H2O2): 52.9%
- Twin Spots m = 5 (Drosophila melanogaster [1]; GLU 350 mM + 0.15 M H2O2): 0 clones per wing
- Large Simple Spots (>2 Cells) m = 5 (Drosophila melanogaster [1]; [7]): 0.025 (1) clones per wing
- Small Single Spots (1–2 Cells) m = 2 (Drosophila melanogaster [1]; [7]): 0.175 (7) clones per wing
- Total Spots m = 2 (Drosophila melanogaster [1]; [7]): 0.2 (8) clones per wing
- Total Spots, statistical diagnosis (Kastenbaum-Bowman test) (Drosophila melanogaster [1]; GLU 350 mM + 0.15 M H2O2 vs positive control): *
- methylation status of LINE elements ([2]; 11 mM GLU): hypomethylated
- methylation status of LINE repetitive element ([2]; 350 mM GLU): reduced the methylation status
- methylation status of satellite alpha sequences [3]: hypermethylated
- increase of the quality of life (healthspan) (Drosophila melanogaster [4]; 350 mM GLU): 34%
- Healthspan Difference (%) (Drosophila melanogaster [4]; [8]): −4.5%
- Mean Lifespan Difference (%) (Drosophila melanogaster [4]; [8]): 2.65%
- Healthspan (80th Percentile) (Drosophila melanogaster [4]; GLU 2.7 mM): 31.14 ± 1.53 days
- Mean Lifespan (Drosophila melanogaster [4]; GLU 2.7 mM): 61.25 ± 2.12 days
- Healthspan Difference (%) (Drosophila melanogaster [4]; [9]): 25.65%
- Mean Lifespan Difference (%) (Drosophila melanogaster [4]; [9]): 8.76%
- Healthspan (80th Percentile) (Drosophila melanogaster [4]; GLU 11 mM): 41 ± 3.4 days
- Mean Lifespan (Drosophila melanogaster [4]; GLU 11 mM): 64.9 ± 2.05 days
- Healthspan Difference (%) (Drosophila melanogaster [4]; [10]): −5.8%
- Mean Lifespan Difference (%) (Drosophila melanogaster [4]; [10]): 5.9%
- Healthspan (80th Percentile) (Drosophila melanogaster [4]; GLU 21.86 mM): 30.66 ± 3.62 days
- Mean Lifespan (Drosophila melanogaster [4]; GLU 21.86 mM): 63.21 ± 2.08 days
- Healthspan Difference (%) (Drosophila melanogaster [4]; [11]): −8.4%
- Mean Lifespan Difference (%) (Drosophila melanogaster [4]; [11]): 1.39%
- Healthspan (80th Percentile) (Drosophila melanogaster [4]; GLU 87.5 mM): 29.9 ± 1.96 days
- Mean Lifespan (Drosophila melanogaster [4]; GLU 87.5 mM): 60.5 ± 2.5 days
- Healthspan Difference (%) (Drosophila melanogaster [4]; [12]): −34%
- Mean Lifespan Difference (%) (Drosophila melanogaster [4]; [12]): −1.2%
- Healthspan (80th Percentile) (Drosophila melanogaster [4]; GLU 350 mM): 21.5 ± 0.76 days
- Mean Lifespan (Drosophila melanogaster [4]; GLU 350 mM): 59 ± 3.1 days
- lifespan compared with concurrent control (Drosophila melanogaster [4]; all tested concentrations): did not significantly differ
- Survival (%) Combined Treatment (Drosophila melanogaster [5]; GLU 2.7 mM + 0.15 M hydrogen peroxide): 60%
- Survival (%) Combined Treatment (Drosophila melanogaster [5]; GLU 11 mM + 0.15 M hydrogen peroxide): 84.35 * %
- Survival (%) Combined Treatment (Drosophila melanogaster [5]; GLU 21.86 mM + 0.15 M hydrogen peroxide): 88.65 * %
- Survival (%) Combined Treatment (Drosophila melanogaster [5]; GLU 87.5 mM + 0.15 M hydrogen peroxide): 79 * %
- Survival (%) Combined Treatment (Drosophila melanogaster [5]; GLU 350 mM + 0.15 M hydrogen peroxide): 72 * %
